Assay [1] has as its target T1, Prostaglandin G/H synthase 1 (Ovis aries, UniProt P05979).
T1 sequence (P05979 whole entry): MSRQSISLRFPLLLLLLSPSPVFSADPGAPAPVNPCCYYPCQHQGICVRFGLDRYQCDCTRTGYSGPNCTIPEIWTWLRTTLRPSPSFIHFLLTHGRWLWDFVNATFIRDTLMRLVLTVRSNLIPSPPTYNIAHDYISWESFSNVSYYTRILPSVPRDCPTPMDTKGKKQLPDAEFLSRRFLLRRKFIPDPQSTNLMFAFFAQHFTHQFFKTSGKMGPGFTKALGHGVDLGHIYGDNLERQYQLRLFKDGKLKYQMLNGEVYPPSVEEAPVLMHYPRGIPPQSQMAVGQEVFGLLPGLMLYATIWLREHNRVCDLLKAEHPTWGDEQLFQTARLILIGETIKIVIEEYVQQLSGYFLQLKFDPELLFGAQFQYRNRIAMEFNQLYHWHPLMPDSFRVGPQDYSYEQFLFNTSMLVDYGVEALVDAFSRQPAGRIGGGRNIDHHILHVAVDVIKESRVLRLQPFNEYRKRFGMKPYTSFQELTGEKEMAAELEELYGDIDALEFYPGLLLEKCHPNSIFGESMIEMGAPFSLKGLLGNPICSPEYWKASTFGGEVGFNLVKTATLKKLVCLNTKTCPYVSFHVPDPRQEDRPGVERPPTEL
As to the kind of experiment: Cyclooxygenase (COX) Inhibition Assay. The following applies: 37 °C. The protocol:
(§1) The COX-1/COX-2 inhibition assay was done using an enzyme immunoassay (EIA) kit. The reaction buffer (960 uL), containing 0.1 M Tris-HCl (pH 8.0), 5 mM EDTA and 2 mM phenol, with either COX-1 or COX-2 (10 uL) enzyme in the presence of heme (10 uL) was added 10 uL of various concentrations of test drug solutions (0.01, 0.1, 1, 10, 50, and 100 uM in a final volume of 1 mL). The reaction was incubated for 5 min at 37 uC, followed by the addition of 10 uL of AA (100 uM) solution. The reaction was stopped by the addition of 50 uL of 1M HCl after 2 min.

Assay [2] addresses T2, Prostaglandin G/H synthase 2 (Ovis aries, UniProt P79208).
T2 sequence (P79208 whole entry): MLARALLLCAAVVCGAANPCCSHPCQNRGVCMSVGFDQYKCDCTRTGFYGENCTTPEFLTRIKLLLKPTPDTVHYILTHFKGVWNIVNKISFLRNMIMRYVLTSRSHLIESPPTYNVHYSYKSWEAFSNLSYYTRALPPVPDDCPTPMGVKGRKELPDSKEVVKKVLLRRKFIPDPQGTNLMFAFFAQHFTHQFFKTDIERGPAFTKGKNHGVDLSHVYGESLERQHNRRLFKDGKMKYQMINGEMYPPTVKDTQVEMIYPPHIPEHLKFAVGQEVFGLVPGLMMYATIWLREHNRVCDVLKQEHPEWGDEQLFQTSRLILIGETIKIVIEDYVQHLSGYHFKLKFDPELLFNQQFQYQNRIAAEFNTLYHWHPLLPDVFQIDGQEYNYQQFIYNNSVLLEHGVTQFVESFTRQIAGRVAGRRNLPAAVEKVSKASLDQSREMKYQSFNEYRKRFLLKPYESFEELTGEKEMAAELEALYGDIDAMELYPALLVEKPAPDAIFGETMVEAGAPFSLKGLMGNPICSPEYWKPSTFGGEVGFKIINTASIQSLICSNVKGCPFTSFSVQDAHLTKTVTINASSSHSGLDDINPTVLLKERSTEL
As to the kind of experiment: Cyclooxygenase (COX) Inhibition Assay. The following applies: 37 °C. The protocol:
as §1

Where only a bound is given, the exact number is not on record here.

For the compound `Cc1[nH]n(-c2ccccc2)c(=O)c1CN=C(N)N` [1-((3-methyl-5-oxo-1-phenyl-4,5-dihydro-1H-pyrazol-4-yl)methyl)guanidine (5e)], the values for the IC50 in assay [1] and in assay [2] were greater than 100 µM and 50.7 µM, respectively.

With `Cc1cc(=O)n(-c2ccccc2)[nH]1` [MLS000069602], the figures for the IC50 in assay [1] and in assay [2] were greater than 100 µM and 35 µM, respectively.

As for `Cc1[nH]n(-c2ccccc2)c(=O)c1CNC(N)=O` [1-[(3-methyl-5-oxo-1-phenyl-4,5-dihydro-1H-pyrazol-4-yl)methyl]urea (5a)], the figures for the half-inhibitory concentration (IC50) in assay [1] and in assay [2] were greater than 100 µM and 2.3 µM, respectively.

`Cc1[nH]n(-c2ccccc2)c(=O)c1CNC(=S)Nc1ccccc1` [1-[(3-methyl-5-oxo-1-phenyl-4,5-dihydro-1H-pyrazol-4-yl)methyl]-3-phenylthiourea (5d)]: the IC50 worked out at 80 µM in assay [1] and 0.2 µM in assay [2].

`Cc1[nH]n(-c2ccccc2)c(=O)c1CNC(=O)NN` [N-[(3-methyl-5-oxo-1-phenyl-4,5-dihydro-1H-pyrazol-4yl)methyl] hydrazine carboxamide (5g)]: the IC50 in assay [1] and in assay [2] was greater than 100 µM throughout.

Regarding `Cc1[nH]n(-c2ccccc2)c(=O)c1CNc1ccc(S(N)(=O)=O)cc1` [4-{[(3-methyl-5-oxo-1-phenyl-4,5-dihydro-1H-pyrazol-4-yl)methyl]amino} benzene sulfonamide (5f)], the IC50 was greater than 100 µM in assay [1] and 1 µM in assay [2].

With `Cc1[nH]n(-c2ccccc2)c(=O)c1CNC(N)=S` [1-[(3-methyl-5-oxo-1-phenyl-4,5-dihydro-1H-pyrazol-4-yl)methyl]thiourea (5c)], the IC50 in assay [1] was greater than 100 µM; in assay [2], 85 µM.

In the case of `Cc1[nH]n(-c2ccccc2)c(=O)c1CNC(=O)Nc1ccc(Cl)cc1` [1-(4-chlorophenyl)-3-[(3-methyl-5-oxo-1-phenyl-4,5-dihydro-1H-pyrazol-4-yl)methyl]urea (5b)], the IC50 in assay [1] and in assay [2] was greater than 100 µM each time.

For the origin of these results see BindingDB's records for doi:10.1111/cbdd.12324 (Y.B. Chavan College of Pharmacy, 2014).
